Experimental data from ChEMBL document CHEMBL4052765, “Synthesis and antibacterial evaluation of novel 11-O-carbamoyl clarithromycin ketolides” (2017).
Values after ≈ are worked out from the molar mass of the structure shown.

What was measured:
Type in all cases: functional
[1] = tested on: Staphylococcus aureus; assay: Antibacterial activity against […] Staphylococcus aureus ATCC 29213 after 24 h by NCCLS broth microdilution method; details: ATCC 29213, 24 h
[2] = tested on: Streptococcus pyogenes; assay: Antibacterial activity against erythromycin-susceptible Streptococcus pyogenes after 24 h by NCCLS broth microdilution method
[3] = tested on: Escherichia coli; assay: Antibacterial activity against penicillin-susceptible Escherichia coli ATCC 25922 after 24 h by NCCLS broth microdilution method; details: ATCC 25922, 24 h
[4] = tested on: Streptococcus pneumoniae; assay: Antibacterial activity against erythromycin-resistant Streptococcus pneumoniae B1 harboring erm gene after 24 h by NCCLS broth microdilution method; details: B1, 24 h
[5] = tested on: Staphylococcus aureus; assay: Antibacterial activity against erythromycin-susceptible Staphylococcus aureus ATCC 25923 after 24 h by NCCLS broth microdilution method; details: ATCC 25923, 24 h
[6] = tested on: Bacillus subtilis; assay: Antibacterial activity against penicillin-susceptible Bacillus subtilis ATCC 9372 after 24 h by NCCLS broth microdilution method; details: ATCC 9372, 24 h
[7] = tested on: Pseudomonas aeruginosa; assay: Antibacterial activity against penicillin-susceptible Pseudomonas aeruginosa ATCC 27853 after 24 h by NCCLS broth microdilution method; details: ATCC 27853, 24 h
[8] = tested on: Streptococcus pneumoniae; assay: Antibacterial activity against erythromycin-resistant Streptococcus pneumoniae A22072 harboring mef gene after 24 h by NCCLS broth microdilution method; details: A22072, 24 h
[9] = tested on: Streptococcus pneumoniae; assay: Antibacterial activity against erythromycin-resistant Streptococcus pneumoniae AB11 harboring harboring mef and erm gene after 24 h by NCCLS broth microdilution method; details: AB11, 24 h
[10] = tested on: Streptococcus pyogenes; assay: Antibacterial activity against erythromycin-resistant Streptococcus pyogenes R1 after 24 h by NCCLS broth microdilution method; details: R1, 24 h

SMILES | MIC [1] [µg/mL] | MIC [2] [µg/mL] | MIC [3] [µg/mL] | MIC [4] [µg/mL] | MIC [5] [µg/mL] | MIC [6] [µg/mL] | MIC [7] [µg/mL] | MIC [8] [µg/mL] | MIC [9] [µg/mL] | MIC [10] [µg/mL]
CC[C@H]1OC(=O)[C@H](C)C(=O)[C@H](C)[C@@H](O[C@@H]2O[C@H](C)C[C@H](N(C)C)[C@H]2O)[C@](C)(OC)C[C@@H](C)C(=O)[C@H](C)[C@@H](OC(=O)NCCNC(=O)c2ccc(F)cc2)[C@]1(C)O | 128 (≈ 161 µM) | 2 (≈ 2.51 µM) | > 128 | 128 (≈ 161 µM) | 32 (≈ 40.2 µM) | 1 (≈ 1.26 µM) | 128 (≈ 161 µM) | 2 (≈ 2.51 µM) | 64 (≈ 80.4 µM) | > 128
CC[C@H]1OC(=O)[C@H](C)C(=O)[C@H](C)[C@@H](O[C@@H]2O[C@H](C)C[C@H](N(C)C)[C@H]2O)[C@](C)(OC)C[C@@H](C)C(=O)[C@H](C)[C@@H](OC(=O)NCCNC(=O)c2cccc(O)c2)[C@]1(C)O | 128 (≈ 161 µM) | 2 (≈ 2.52 µM) | > 128 | 128 (≈ 161 µM) | 128 (≈ 161 µM) | 16 (≈ 20.2 µM) | > 128 | 16 (≈ 20.2 µM) | 64 (≈ 80.6 µM) | > 128
CC[C@H]1OC(=O)[C@H](C)C(=O)[C@H](C)[C@@H](O[C@@H]2O[C@H](C)C[C@H](N(C)C)[C@H]2O)[C@](C)(OC)C[C@@H](C)C(=O)[C@H](C)[C@@H](OC(=O)NCCNC(=O)c2ccc(OC)cc2)[C@]1(C)O | 128 (≈ 158 µM) | 2 (≈ 2.48 µM) | > 128 | 128 (≈ 158 µM) | 32 (≈ 39.6 µM) | 4 (≈ 4.95 µM) | > 128 | 1 (≈ 1.24 µM) | 64 (≈ 79.2 µM) | > 128
CC[C@H]1OC(=O)[C@H](C)C(=O)[C@H](C)[C@@H](O[C@@H]2O[C@H](C)C[C@H](N(C)C)[C@H]2O)[C@](C)(OC)C[C@@H](C)C(=O)[C@H](C)[C@@H](OC(=O)NCCNC(=O)c2ccccc2)[C@]1(C)O | 128 (≈ 165 µM) | 4 (≈ 5.14 µM) | > 128 | 128 (≈ 165 µM) | 64 (≈ 82.3 µM) | 4 (≈ 5.14 µM) | > 128 | 4 (≈ 5.14 µM) | 128 (≈ 165 µM) | > 128
CC[C@H]1OC(=O)[C@H](C)C(=O)[C@H](C)[C@@H](O[C@@H]2O[C@H](C)C[C@H](N(C)C)[C@H]2O)[C@](C)(OC)C[C@@H](C)C(=O)[C@H](C)[C@@H](OC(=O)NCCNC(=O)/C=C/c2ccc(O)cc2)[C@]1(C)O | 32 (≈ 39 µM) | 4 (≈ 4.88 µM) | > 128 | 128 (≈ 156 µM) | 32 (≈ 39 µM) | 8 (≈ 9.76 µM) | 128 (≈ 156 µM) | 4 (≈ 4.88 µM) | 128 (≈ 156 µM) | > 128
CC[C@H]1OC(=O)[C@H](C)C(=O)[C@H](C)[C@@H](O[C@@H]2O[C@H](C)C[C@H](N(C)C)[C@H]2O)[C@](C)(OC)C[C@@H](C)C(=O)[C@H](C)[C@@H](OC(=O)NCCNC(=O)c2ccc(C(C)(C)C)cc2)[C@]1(C)O | 128 (≈ 153 µM) | 16 (≈ 19.2 µM) | > 128 | 128 (≈ 153 µM) | 128 (≈ 153 µM) | 4 (≈ 4.8 µM) | > 128 | 4 (≈ 4.8 µM) | 128 (≈ 153 µM) | 128 (≈ 153 µM)
CC[C@H]1OC(=O)[C@H](C)C(=O)[C@H](C)[C@@H](O[C@@H]2O[C@H](C)C[C@H](N(C)C)[C@H]2O)[C@](C)(OC)C[C@@H](C)C(=O)[C@H](C)[C@@H](OC(=O)NCCNC(=O)/C=C/c2ccc([N+](=O)[O-])cc2)[C@]1(C)O | 128 (≈ 151 µM) | 1 (≈ 1.18 µM) | > 128 | 128 (≈ 151 µM) | 32 (≈ 37.7 µM) | 4 (≈ 4.71 µM) | 128 (≈ 151 µM) | 1 (≈ 1.18 µM) | 128 (≈ 151 µM) | > 128
CC[C@H]1OC(=O)[C@H](C)C(=O)[C@H](C)[C@@H](O[C@@H]2O[C@H](C)C[C@H](N(C)C)[C@H]2O)[C@](C)(OC)C[C@@H](C)C(=O)[C@H](C)[C@@H](OC(=O)NCCNC(=O)/C=C/c2ccc(Cl)cc2Cl)[C@]1(C)O | 32 (≈ 36.7 µM) | 2 (≈ 2.29 µM) | 128 (≈ 147 µM) | 128 (≈ 147 µM) | 8 (≈ 9.17 µM) | 2 (≈ 2.29 µM) | > 128 | 2 (≈ 2.29 µM) | 128 (≈ 147 µM) | 64 (≈ 73.3 µM)
CC[C@H]1OC(=O)[C@H](C)C(=O)[C@H](C)[C@@H](O[C@@H]2O[C@H](C)C[C@H](N(C)C)[C@H]2O)[C@](C)(OC)C[C@@H](C)C(=O)[C@H](C)[C@@H](OC(=O)NCCNC(=O)/C=C/c2ccc(Br)cc2)[C@]1(C)O | 64 (≈ 72.5 µM) | 2 (≈ 2.27 µM) | > 128 | 128 (≈ 145 µM) | 32 (≈ 36.2 µM) | 4 (≈ 4.53 µM) | > 128 | 2 (≈ 2.27 µM) | 128 (≈ 145 µM) | > 128
CC[C@H]1OC(=O)[C@H](C)[C@@H](O[C@H]2C[C@@](C)(OC)[C@@H](O)[C@H](C)O2)[C@H](C)[C@@H](O[C@@H]2O[C@H](C)C[C@H](N(C)C)[C@H]2O)[C@](C)(OC)C[C@@H](C)C(=O)[C@H](C)[C@@H](O)[C@]1(C)O [CLARITHROMYCIN] | 64 (≈ 85.6 µM) | 0.03 (≈ 0.0401 µM) | 64 (≈ 85.6 µM) | > 128 | 0.25 (≈ 0.334 µM) | 0.25 (≈ 0.334 µM) | 64 (≈ 85.6 µM) | 4 (≈ 5.35 µM) | 128 (≈ 171 µM) | > 128
CC[C@H]1OC(=O)[C@H](C)C(=O)[C@H](C)[C@@H](O[C@@H]2O[C@H](C)C[C@H](N(C)C)[C@H]2O)[C@](C)(OC)C[C@@H](C)C(=O)[C@H](C)[C@@H](OC(=O)NCCNC(=O)/C=C/c2ccccc2)[C@]1(C)O | 128 (≈ 159 µM) | 4 (≈ 4.98 µM) | > 128 | 128 (≈ 159 µM) | 32 (≈ 39.8 µM) | 8 (≈ 9.95 µM) | > 128 | 4 (≈ 4.98 µM) | 64 (≈ 79.6 µM) | > 128
CC[C@H]1OC(=O)[C@H](C)C(=O)[C@H](C)[C@@H](O[C@@H]2O[C@H](C)C[C@H](N(C)C)[C@H]2O)[C@](C)(OC)C[C@@H](C)C(=O)[C@H](C)[C@@H](OC(=O)NCCNC(=O)c2cccc(C)c2)[C@]1(C)O | 128 (≈ 162 µM) | 4 (≈ 5.05 µM) | > 128 | 128 (≈ 162 µM) | 32 (≈ 40.4 µM) | 8 (≈ 10.1 µM) | > 128 | 8 (≈ 10.1 µM) | 64 (≈ 80.8 µM) | > 128
CC[C@H]1OC(=O)[C@H](C)C(=O)[C@H](C)[C@@H](O[C@@H]2O[C@H](C)C[C@H](N(C)C)[C@H]2O)[C@](C)(OC)C[C@@H](C)C(=O)[C@H](C)[C@@H](OC(=O)NCCNC(=O)/C=C/c2ccccc2Cl)[C@]1(C)O | 32 (≈ 38.2 µM) | 2 (≈ 2.39 µM) | 128 (≈ 153 µM) | 128 (≈ 153 µM) | 32 (≈ 38.2 µM) | 4 (≈ 4.77 µM) | > 128 | 2 (≈ 2.39 µM) | 128 (≈ 153 µM) | > 128
CC[C@H]1OC(=O)[C@H](C)[C@@H](O[C@H]2C[C@@](C)(OC)[C@@H](O)[C@H](C)O2)[C@H](C)[C@@H](O[C@@H]2O[C@H](C)C[C@H](N(C)C)[C@H]2O)[C@](C)(O)C[C@@H](C)CN(C)[C@H](C)[C@@H](O)[C@]1(C)O [AZITHROMYCIN] | 8 (≈ 10.7 µM) | 0.03 (≈ 0.0401 µM) | 16 (≈ 21.4 µM) | > 128 | 0.25 (≈ 0.334 µM) | 0.25 (≈ 0.334 µM) | 16 (≈ 21.4 µM) | 2 (≈ 2.67 µM) | > 128 | > 128
CC[C@H]1OC(=O)[C@H](C)C(=O)[C@H](C)[C@@H](O[C@@H]2O[C@H](C)C[C@H](N(C)C)[C@H]2O)[C@](C)(OC)C[C@@H](C)C(=O)[C@H](C)[C@@H](OC(=O)NCCNC(=O)c2ccc(Br)cc2)[C@]1(C)O | 128 (≈ 149 µM) | 2 (≈ 2.33 µM) | > 128 | 128 (≈ 149 µM) | 8 (≈ 9.34 µM) | 1 (≈ 1.17 µM) | 128 (≈ 149 µM) | 1 (≈ 1.17 µM) | 64 (≈ 74.7 µM) | > 128
CC[C@H]1OC(=O)[C@H](C)C(=O)[C@H](C)[C@@H](O[C@@H]2O[C@H](C)C[C@H](N(C)C)[C@H]2O)[C@](C)(OC)C[C@@H](C)C(=O)[C@H](C)[C@@H](OC(=O)NCCNC(=O)/C=C/c2ccc(F)cc2)[C@]1(C)O | 128 (≈ 156 µM) | 2 (≈ 2.43 µM) | > 128 | 128 (≈ 156 µM) | 32 (≈ 38.9 µM) | 8 (≈ 9.73 µM) | > 128 | 4 (≈ 4.87 µM) | 64 (≈ 77.9 µM) | > 128
CC[C@H]1OC(=O)[C@H](C)C(=O)[C@H](C)[C@@H](O[C@@H]2O[C@H](C)C[C@H](N(C)C)[C@H]2O)[C@](C)(OC)C[C@@H](C)C(=O)[C@H](C)[C@@H](OC(=O)NCCNC(=O)c2ccc(C)cc2)[C@]1(C)O | 128 (≈ 162 µM) | 4 (≈ 5.05 µM) | > 128 | 128 (≈ 162 µM) | 32 (≈ 40.4 µM) | 2 (≈ 2.53 µM) | > 128 | 2 (≈ 2.53 µM) | 64 (≈ 80.8 µM) | > 128
CC[C@H]1OC(=O)[C@H](C)C(=O)[C@H](C)[C@@H](O[C@@H]2O[C@H](C)C[C@H](N(C)C)[C@H]2O)[C@](C)(OC)C[C@@H](C)C(=O)[C@H](C)[C@@H](OC(=O)NCCNC(=O)/C=C/c2cccc3ccccc23)[C@]1(C)O | 32 (≈ 37.5 µM) | 1 (≈ 1.17 µM) | 128 (≈ 150 µM) | 128 (≈ 150 µM) | 16 (≈ 18.7 µM) | 2 (≈ 2.34 µM) | > 128 | 2 (≈ 2.34 µM) | 128 (≈ 150 µM) | 128 (≈ 150 µM)
